Experiment [1] has as its target T1, Neutrophil elastase (Homo sapiens, UniProt P08246).
T1 sequence (P08246 whole entry): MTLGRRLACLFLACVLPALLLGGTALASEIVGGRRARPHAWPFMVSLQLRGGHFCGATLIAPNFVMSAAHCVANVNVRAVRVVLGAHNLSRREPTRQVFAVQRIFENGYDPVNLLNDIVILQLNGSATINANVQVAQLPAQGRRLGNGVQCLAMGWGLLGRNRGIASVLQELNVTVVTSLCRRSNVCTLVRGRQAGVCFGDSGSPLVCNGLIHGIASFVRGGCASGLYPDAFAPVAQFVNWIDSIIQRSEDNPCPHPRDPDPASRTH
As to the kind of experiment: Inhibitory activity against human leukocyte elastase (HLE) was determined.

For experiment [2], the target named is T2, Neutrophil elastase (Homo sapiens) (UniProt P08246).
T2 sequence (whole entry): T1 sequence (P08246 whole entry)
Description: Rate constant for the compound was determined against human leukocyte elastase (HLE)

Experiment [3] addresses T2, Neutrophil elastase (Homo sapiens). This is another data set of the same source.
Description: Rate constant for the compound was determined (k2/ki) against human leukocyte elastase (HLE)
For experiment [4] the target is unchanged. The source holds these as a separate data set.
Description: Alkaline hydrolysis constant for the compound was determined against human leukocyte elastase (HLE)

Broadly, the Ki is a measure of affinity in units of concentration, obtained from inhibition or displacement. In experiment [1], `C[C@@H](O)[C@H]1C(=O)N2C/C(=C/C(=O)OC(C)(C)C)S[C@H]12` came in with a Ki of 4 µM.
In turn, `C[C@@H](OC(=O)Cc1ccccc1)[C@H]1C(=O)N2S/C(=C/C(=O)OC(C)(C)C)S[C@H]12` came in with a Ki in experiment [1] of 0.4 µM. In experiment [2], this compound displayed a k off of 0.0004 s⁻¹. The same compound displayed a k on in experiment [3] of 970 M⁻¹ s⁻¹. The compound also displayed a kOH in experiment [4] of 0.04 M⁻¹ s⁻¹.
In the same order, the values of `C[C@@H](O)[C@H]1C(=O)N2S/C(=C\C(=O)OC(C)(C)C)S[C@H]12` are 12 µM, 0.002 s⁻¹, 150 M⁻¹ s⁻¹ and 3 M⁻¹ s⁻¹.
In experiment [1], `C[C@@H](O)[C@H]1C(=O)N2C/C(=C/C(=O)OC(C)(C)C)C[C@H]12` showed a Ki above 100 µM.
On to `C[C@@H](O)[C@H]1C(=O)N2S/C(=C/C(=O)OC(C)(C)C)S[C@H]12`, for which affinity in experiment [1] was put at a Ki of 1.5 µM. The same compound gave a k off in experiment [2] of 0.0014 s⁻¹. Also, in experiment [3], the k on was 1000 M⁻¹ s⁻¹. The kOH in experiment [4] turned out to be 12 M⁻¹ s⁻¹.
Regarding `C[C@@H](O)[C@@H]1C(=O)N2S/C(=C/C(=O)OC(C)(C)C)S[C@@H]12`, the Ki in experiment [1] was above 100 µM. In experiment [4], this compound returned a kOH of 10.3 M⁻¹ s⁻¹.
Regarding `C[C@@H](O)[C@H]1C(=O)N2S/C(=C/C(=O)OC(C)(C)C)C[C@H]12`, in experiment [1], affinity was put at a Ki of 3.2 µM.

These data come from ChEMBL document CHEMBL1149952, “Inhibition of human leukocyte elastase (HLE) by novel bicyclic -lactams” (Bioorg Med Chem Lett, 1993).
